The values that follow come from ChEMBL document CHEMBL1138894, “Synthesis and biological investigation of S-aryl-S-DABO derivatives as HIV-1 inhibitors” (Bioorg Med Chem Lett, 2006).

The test system of test [1] is Human immunodeficiency virus type 1 reverse transcriptase (Human immunodeficiency virus 1), Q72547 [K103N]. Description: Inhibition of HIV1 reverse transcriptase K103N mutant at 400uM.
The test system of test [2] is Human immunodeficiency virus type 1 reverse transcriptase (Human immunodeficiency virus 1), Q72547 [Y181I]. Description: Inhibition of HIV1 reverse transcriptase Y181I mutant at 400uM.
For the next test, the system named is MT4. The test can be described thus: Cytotoxicity against MT4 cells by MTT assay. It counts as functional. Conditions: Homo sapiens. A general note: Tetrazolium assays rely on reduction of a dye to a coloured formazan, in cell work by metabolically active cells.
The target in test [3] is Human immunodeficiency virus type 1 reverse transcriptase (Human immunodeficiency virus 1) (UniProt Q72547). Description: Inhibition of wild type HIV1 reverse transcriptase at 400uM.
For test [4] the target is unchanged.
The target is the same in test [5]. Description: Selectivity index (CC50/EC50). It counts as functional.

Calls of active or inactive are those of the source. The calls are words filed in the database; no cut-off is given here.

Usually CC50 stands for the concentration that lowers cell viability or growth by half. `COc1ccc(Sc2nc(O)c(C)c(Cc3c(F)cccc3F)n2)cc1`: the result in test [1], in test [2] and in test [3] was inactive. In addition, half-maximal cytotoxicity in the test with MT4 (CC50) was put at 57.5 µM.

`Cc1c(O)nc(Sc2ccc(F)cc2F)nc1Cc1c(Cl)cccc1Cl`: the outcome in test [1] and in test [2] was inactive. Moreover, in the test with MT4, the CC50 was more than 60.5 µM. The same molecule displayed an ID50 in test [4] of 10 µM.

As to `Cc1c(O)nc(Sc2ccc(Cl)cc2)nc1Cc1c(F)cccc1F`, the result in test [1] and in test [2] was inactive. The molecule also registered a CC50 in the test on MT4 of more than 66.1 µM. The same molecule yielded an ID50 in test [4] of 22 µM.

For the molecule `COc1ccc(Sc2nc(O)c(C)c(Cc3c(Cl)cccc3Cl)n2)cc1`, the outcome in test [1], in test [2] and in test [3] was inactive. Further, in the test on MT4, the CC50 was more than 61.4 µM.

`Cc1cn([C@H]2C[C@H](N=[N+]=[N-])[C@@H](CO)O2)c(=O)[nH]c1=O` [ZIDOVUDINE] returned a CC50 in the test with MT4 of 3.7 µM.

On to `Cc1c(O)nc(Sc2ccc(F)cc2F)nc1Cc1c(F)cccc1F`, for which the outcome in test [1] and in test [2] was inactive. The same molecule registered a cytotoxic concentration (CC50) with MT4 of more than 65.8 µM. Further, the ID50 in test [4] is 30 µM.

In the test with MT4, `Cc1ccnc2c1NC(=O)c1cccnc1N2C1CC1` [NEVIRAPINE] had a CC50 of more than 7.5 µM.

With `Cc1c(O)nc(Sc2ccccc2)nc1Cc1c(Cl)cccc1Cl`, the outcome in test [1] and in test [2] was inactive. For the same molecule, in the test with MT4, the CC50 was more than 66.3 µM. Besides, in test [4], the ID50 is 36 µM.

In turn, `O=C1Nc2ccc(Cl)cc2C(C#CC2CC2)(C(F)(F)F)O1` (single isomer, unassigned) [EFAVIRENZ] returned a half-maximal cytotoxic concentration (CC50) in the test with MT4 of more than 0.32 µM.

As for `Cc1c(O)nc(Sc2ccccc2)nc1Cc1c(F)cccc1F`, the result in test [1] and in test [2] was inactive. In addition, the CC50 with MT4 is more than 72.7 µM. This molecule also gave a Selectivity index in test [5] of more than 835. For the same molecule, the ID50 in test [4] turned out to be 32 µM.

Take `COc1ccc(Sc2nc(O)c(C)c(Cc3c(Cl)cccc3Cl)n2)cn1`: the outcome in test [1] and in test [2] was inactive. This molecule gave a 50% cytotoxic concentration (CC50) in the test on MT4 of more than 61.3 µM. The molecule further registered an ID50 in test [4] of 3.5 µM.

As for `Cc1c(O)nc(Sc2ccc(C#N)cc2)nc1Cc1c(Cl)cccc1Cl`, the result in test [1] and in test [2] was inactive. This molecule registered a cytotoxic concentration (CC50) in the test with MT4 of 27.6 µM. In test [4], this molecule returned an ID50 of 23 µM.
